From patent US9434704B2, “Compositions and methods for the treatment of neurological degenerative disorders” (CELLIX BIO PRIVATE LIMITED, priority 2012, dated 2016) come the findings set out here.

Values joined by “and” are separate entries in the source; they are usually repeats but may differ in a detail not shown here. Identical values can stand only once. A value given as a limit tells only on which side of the number the result lay.

For series [1] the following is noted: rat, in vivo, 8 mg/kg.
Series [2] is described as follows: in vivo. The note with it: female, Wistar, rat, ip, 8 mg/kg.

As to `CC(OC(=O)CCCC[C@]1(C)CCSS1)OC(=O)Nc1nc2ccc(OC(F)(F)F)cc2s1` (stereo partly shown) [Formula II (2-1)], the “time to reach spinal cord (SC)” value in series [1] (female, Wistar) is ≤ 15 min. In addition, the “time of Cmax in SC” value in series [1] came out at 1.5 h. Further, the “absorption after I.P. administration” value in series [1] (ip) is recorded as “readily absorbed”. The “time of Cmax in brain” value in series [1] (ip) was 0.7 h. In series [1] (ip), the “time of Cmax in plasma” value worked out at 0.5 h. The Cmax – broadly, the highest concentration seen after dosing – in series [2] is 10200 ng/g and 3380 ng/mL. In addition, the half-life (commonly the time needed for the level to fall by half in the phase considered) is 13.2 h in series [2] (t1/2 in brain), 13.2 h in series [2] (t1/2 in cervical SC), 11 h in series [2] (t1/2 in plasma) and 11 h in series [2] (t1/2 in thoracic SC).
